Assay results from US20260042731A1, “(2,4-DICHLOROPHENOXY)ACETIC ACID ANALOGS” (CORTEVA AGRISCIENCE LLC, priority 2022, published 2026).
Read-outs that look alike come from different tables or passages of the source.

Legend:
Type in all cases: in vivo
[1] = system: glyphosate resistant Conyza canadensis (L.) (ERICA), horseweed; assay: Postemergence herbicide evaluation, growth of Conyza canadensis (ERICA); conditions: Erigeron canadensis, post-emergence, read-out: Ave. ERICA, percent reduction in plant size relative to the untreated control; for pest or weed control at 280 g/ha: 280 g ae/ha; for pest or weed control at 560 g/ha: 560 g ae/ha
[2] = system: Ambrosia artemisiifolia (AMBEL), common ragweed; assay: Postemergence herbicide evaluation, growth of Ambrosia artemisiifolia (AMBEL); conditions: Ambrosia artemisiifolia, post-emergence, read-out: AVE. AMBEL, percent reduction in plant size relative to the untreated control; for pest or weed control at 280 g/ha: 280 g ae/ha; for pest or weed control at 560 g/ha: 560 g ae/ha
[3] = system: Amaranthus rudis (AMATA), tall water hemp; assay: Postemergence herbicide evaluation, growth of Amaranthus rudis (AMATA); conditions: Amaranthus tuberculatus, post-emergence, read-out: Ave. AMATA, percent reduction in plant size relative to the untreated control; for pest or weed control at 280 g/ha: 280 g ae/ha; for pest or weed control at 560 g/ha: 560 g ae/ha
[4] = system: Abutilon theophrasti (ABUTH), velvetleaf; assay: Postemergence herbicide evaluation, growth of Abutilon theophrasti (ABUTH); conditions: Abutilon theophrasti, post-emergence, read-out: AVE. ABUTH, percent reduction in plant size relative to the untreated control; for pest or weed control at 280 g/ha: 280 g ae/ha; for pest or weed control at 560 g/ha: 560 g ae/ha
[5] = system: weeds ABUTH, AMATA, AMBEL, CHEAL, ERICA; assay: Postemergence herbicide evaluation, overall average % weed control (ABUTH, AMATA, AMBEL, CHEAL, ERICA); conditions: post-emergence, read-out: Overall Ave % Weed Control; for pest or weed control at 280 g/ha: 280 g ae/ha; for pest or weed control at 560 g/ha: 560 g ae/ha
[6] = system: Chenopodium album (CHEAL), common lambsquarters; assay: Postemergence herbicide evaluation, growth of Chenopodium album (CHEAL); conditions: Chenopodium album, post-emergence, read-out: Ave. CHEAL, percent reduction in plant size relative to the untreated control; for pest or weed control at 280 g/ha: 280 g ae/ha; for pest or weed control at 560 g/ha: 560 g ae/ha

| Compound | pest or weed control at 280 g/ha ([1]; 168 h, 7 DAA) [%] | pest or weed control at 560 g/ha ([1]; 168 h, 7 DAA) [%] | pest or weed control at 280 g/ha ([1]; 336 h, 14 DAA) [%] | pest or weed control at 560 g/ha ([1]; 336 h, 14 DAA) [%] | pest or weed control at 280 g/ha ([1]; 504 h, 21 DAA) [%] | pest or weed control at 560 g/ha ([1]; 504 h, 21 DAA) [%] | pest or weed control at 280 g/ha ([2]; 168 h, 7 DAA) [%] | pest or weed control at 560 g/ha ([2]; 168 h, 7 DAA) [%] | pest or weed control at 280 g/ha ([2]; 336 h, 14 DAA) [%] | pest or weed control at 560 g/ha ([2]; 336 h, 14 DAA) [%] | pest or weed control at 280 g/ha ([2]; 504 h, 21 DAA) [%] | pest or weed control at 560 g/ha ([2]; 504 h, 21 DAA) [%] | pest or weed control at 280 g/ha ([3]; 168 h, 7 DAA) [%] | pest or weed control at 560 g/ha ([3]; 168 h, 7 DAA) [%] | pest or weed control at 280 g/ha ([3]; 336 h, 14 DAA) [%] | pest or weed control at 560 g/ha ([3]; 336 h, 14 DAA) [%] | pest or weed control at 280 g/ha ([3]; 504 h, 21 DAA) [%] | pest or weed control at 560 g/ha ([3]; 504 h, 21 DAA) [%] | pest or weed control at 280 g/ha ([4]; 168 h, 7 DAA) [%] | pest or weed control at 560 g/ha ([4]; 168 h, 7 DAA) [%] | further results |
| --- | --- | --- | --- | --- | --- | --- | --- | --- | --- | --- | --- | --- | --- | --- | --- | --- | --- | --- | --- | --- | --- |
| O=C(COc1ccc(Cl)cc1Cl)Oc1cccnn1 [Compound E2] | 70 | 73 | 88 | 85 | 94 | 90 | 63 | 63 | 90 | 95 | 94 | 99 | 78 | 73 | 80 | 83 | 83 | 84 | 85 | 85 | pest or weed control at 280 g/ha ([4]; 336 h, 14 DAA): 93%; pest or weed control at 560 g/ha ([4]; 336 h, 14 DAA): 93%; pest or weed control at 280 g/ha ([4]; 504 h, 21 DAA): 98%; pest or weed control at 560 g/ha ([4]; 504 h, 21 DAA): 98%; pest or weed control at 280 g/ha ([5]; 168 h, 7 DAA): 72%; pest or weed control at 560 g/ha ([5]; 168 h, 7 DAA): 74%; pest or weed control at 280 g/ha ([5]; 336 h, 14 DAA): 83%; pest or weed control at 560 g/ha ([5]; 336 h, 14 DAA): 89%; pest or weed control at 280 g/ha ([5]; 504 h, 21 DAA): 86%; pest or weed control at 560 g/ha ([5]; 504 h, 21 DAA): 93%; pest or weed control at 280 g/ha ([6]; 168 h, 7 DAA): 65%; pest or weed control at 560 g/ha ([6]; 168 h, 7 DAA): 75%; pest or weed control at 280 g/ha ([6]; 336 h, 14 DAA): 63%; pest or weed control at 560 g/ha ([6]; 336 h, 14 DAA): 88%; pest or weed control at 280 g/ha ([6]; 504 h, 21 DAA): 63%; pest or weed control at 560 g/ha ([6]; 504 h, 21 DAA): 94% |
| O=C(COc1ccc(Cl)cc1Cl)Nc1c(Cl)c(F)nc(F)c1Cl [Compound D25] | 7.5 | 10 | 20 | 12.5 | 10 | 12.5 | 35 | 40 | 15 | 7.5 | 10 | 7.5 | 5 | 7.5 | 15 | 25 | 5 | 2.5 | 0 | 3.5 | pest or weed control at 280 g/ha ([4]; 336 h, 14 DAA): 0%; pest or weed control at 560 g/ha ([4]; 336 h, 14 DAA): 0%; pest or weed control at 280 g/ha ([4]; 504 h, 21 DAA): 0%; pest or weed control at 560 g/ha ([4]; 504 h, 21 DAA): 2.5%; pest or weed control at 280 g/ha ([5]; 168 h, 7 DAA): 16.5%; pest or weed control at 560 g/ha ([5]; 168 h, 7 DAA): 21.2%; pest or weed control at 280 g/ha ([5]; 336 h, 14 DAA): 10%; pest or weed control at 560 g/ha ([5]; 336 h, 14 DAA): 10.5%; pest or weed control at 280 g/ha ([5]; 504 h, 21 DAA): 7.5%; pest or weed control at 560 g/ha ([5]; 504 h, 21 DAA): 8%; pest or weed control at 280 g/ha ([6]; 168 h, 7 DAA): 35%; pest or weed control at 560 g/ha ([6]; 168 h, 7 DAA): 45%; pest or weed control at 280 g/ha ([6]; 336 h, 14 DAA): 0%; pest or weed control at 560 g/ha ([6]; 336 h, 14 DAA): 7.5%; pest or weed control at 280 g/ha ([6]; 504 h, 21 DAA): 12.5%; pest or weed control at 560 g/ha ([6]; 504 h, 21 DAA): 15% |
